Assay: ratings of trustworthiness and attractiveness of unfamiliar faces (FIG. 3)
Format: in vivo, human
Conditions: people under the influence of the hormone compared to control groups who were not
Description: As has been explained, the first set 14 of active ingredients create a reaction in the body that induces the production of hormones and/or pheromones. Hormones, such as oxytocin and its kind promote improved social behavior and enhances positive social perceptions of others. […] Oxytocin also masks negative personality perceptions that masculinized faces tend to elicit.

CC[C@H](C)[C@@H]1NC(=O)[C@H](Cc2ccc(O)cc2)NC(=O)[C@@H](N)CSSC[C@@H](C(=O)N2CCC[C@H]2C(=O)N[C@@H](CC(C)C)C(=O)NCC(N)=O)NC(=O)[C@H](CC(N)=O)NC(=O)[C@H](CCC(N)=O)NC1=O [oxytocin]
ratings of "trustworthiness" and "attractiveness" of unfamiliar faces: higher ratings

— patent US20250367106A1, “Topical Formulation for Improving Skin Quality and Inducing the Release of Oxytocin” (OX Technology IP LLC, priority 2024, published 2025)
